In patent US9902761B2, “Polypeptides, nucleic acids and uses thereof” (AGENCY FOR SCIENCE, TECHNOLOGY AND RESEARCH, priority 2013, dated 2018):
“Also recorded” adds a separate entry of the source.

How the values were obtained:
[1] = test system: human chondrosarcoma cell line; test: growth and survival effect of recombinant ELA on chondrosarcoma cells; assay type: cell-based
Protocol: (§1) Primary human fibroblasts, SW1353 chondrosarcoma (ATCC) and NTERA2 hECs (a gift from Barbara Knowles and Davor Solter) were grown in Dulbecco's modified Eagle's medium (DMEM) with 10% FBS (Hyclone), 2 mM GlutaMAX™ (Invitrogen) and 1 mM sodium pyruvate. For xCELLigence real time growth assays, 4000 cells were plated per well of an E-plate (ACEA Biosciences) with media changes every 48 hours. […] Cell cycle studies were performed with Click-iT EDU staining kit (Invitrogen) and by performing a double thymidine block (2.5 mM thymidine; 16 hour block, 8 hour release, 16 hour block) followed by DAPI staining for DNA content at the indicated times following release.

hESCs [2] = test: insulin replacement assay in hESCs; assay type: cell-based, human
Protocol: For insulin replacement assays, SHEF4 or HESC3 hESCs were cultured in TSER-E5 (Stem Cell Technologies) supplemented with TGF-β (5 ng/ml, R&D Systems) and bFGF (100 ng/ml, Invitrogen) with and without INSULIN (10 ug/ml, SIGMA).

[3] = coronary artery disease / myocardial infarction, APELIN experiments repeated with ELABELA; assay type: in vivo
Description: Peptides 2013; 46:76-82. • Li L, Zeng H, Chen J X. Apelin-13 increases myocardial progenitor cells and improves repair postmyocardial infarction. Am J Physiol Heart Cire Physiol 2012; 303:H605-18. • Pisarenko O I, Serebryakova L I, Pelogeykina Y A, et al. In vivo reduction of reperfusion injury to the heart with apelin-12 peptide in rats. Bull Exp Biol Med 2011; 152:79-82.

hECs = test: growth and survival effect of recombinant ELA on hECs; assay type: cell-based, human
Protocol: as §1

CXCR4 [4] = target: T1, CXCR4 (Homo sapiens, UniProt P61073); test: PathHunter β-Arrestin CXCR4 assay, antagonist mode with SDF-1; assay type: cell-based; details: SDF-1 at EC80 concentration
Protocol: To detect activation of CXCR4 by ELA or SDF-1, recombinant ELA or SDF-1 were added in increasing concentrations for 90-180 minutes to cells stably expressing CXCR4 coupled to a downstream reporter. β-Arrestin recruitment was measured using the PathHunter® β-Arrestin CXCR4 assay (DiscoveRx). Interaction of CXCR4 with Arrestin was detected by Enzyme Fragment Complementation (EFC) between two complementary domains of β-galactosidase (β-Gal), one fused to CXCR4 and the other fused to β-Arrestin. β-Arrestin recruitment to CXCR4 results in complementation of the two domains to generate β-Gal activity. % Ac ? vity=100%×(mean RLU of test sample−mean RLU of vehicle control)/(mean MAX control ligand−mean RLU of vehicle control). To detect antagonism of SDF-1 by ELA, the assay was run in antagonist mode by measuring the EC50 of ELA in the presence of SDF-1 at EC80 concentration. To detect synergism between ELA and SDF-1, the assay was run in positive allosteric mode by measuring the EC50 of ELA in the presence of SDF-1 at EC20 concentration.

CXCR4 [5] = target: T1, CXCR4; test: ELA receptor binding assay (ELA-AP) on 293T cells transfected with receptor; design: 293T cells transfected with plasmids encoding full-length ORFs of putative receptors; expressed in transfected cells; host or cells: 293T; details: ELA-AP conditioned medium, 3 hours
Protocol: Secreted ELA-Alkaline Phosphatase (ELA-AP) was produced by transfecting a construct encoding ELA-AP into 293T cells, as described previously (Chng et al., 2013). Conditioned medium from ELA-AP expressing cells was then incubated for 3 hours with 293T cells transfected with plasmids encoding full-length ORFs of putative receptors. Unbound ELA-AP was washed away and cells were lysed with 1% Triton-X/PBS. Lysates were cleared and incubated with an AP substrate BCIP/NBT at 37° C. for 15 minutes. Optical density was read at 495 nm, and the intensity of blue coloration is directly proportional to the affinity of ELA-AP to the over-expressed receptor.

hESCs [6] = test: stress-induced apoptosis of hESCs by ActinomycinD; assay type: cell-based, human
Protocol: To induce apoptosis, hESCs were treated with the indicated doses of ActinomycinD (Sigma) or ionizing radiation followed by Aqueous One Cell Titer (Promega) or CASPASE GLO3/7 (Promega) assays 12 hours post-treatment.

hESCs [7] = test: stress-induced apoptosis of hESCs by ionizing radiation; assay type: cell-based, human
[8] = test system: primary human fibroblasts; test: growth and survival effect of recombinant ELA on primary fibroblasts; assay type: cell-based
Protocol: as §1

[9] = pulmonary arterial hypertension, APELIN experiments repeated with ELABELA; details: in vivo
Description: Am J Physiol Heart Circ Physiol 2009; 296:H2007-14.

hESCs [10] = test: xCELLigence real time growth assay, cell counts and colony size of hESCs; assay type: cell-based, human
Protocol: Feeder-free hESCs were cultured in clumps in mTSER1 (Stem Cell Technologies) on Matrigel (BD 354277).
hESCs were dissociated into single cells using Accutase (Stem Cell Technologies) and plated in the presence of 10 μM Y-27632 (ROCK inhibitor) for 12 hours (Watanabe et al., 2007).
For xCELLigence real time growth assays, 4000 cells were plated per well of an E-plate (ACEA Biosciences) with media changes every 48 hours.
Recombinant ELA was added at 2.5 uM (or 10 μg/ml). Cell cycle studies were performed with Click-iT EDU staining kit (Invitrogen) and by performing a double thymidine block (2.5 mM thymidine; 16 hour block, 8 hour release, 16 hour block) followed by DAPI staining for DNA content at the indicated times following release.

[11] = myocardial ischaemia-reperfusion injury, APELIN experiments repeated with ELABELA; assay type: in vivo; details: administered during reperfusion
Description: Peptides 2009; 30:1144-52. • Simpkin J C, Yellon D M, Davidson S M, Lim S Y, Wynne A M, Smith C C. […] Basic Res Cardiol 2007; 102:518-28.

[12] = 3 hours after 1 Gray of γ irradiation

T1 sequence (P61073 whole entry, the tested form may be a part): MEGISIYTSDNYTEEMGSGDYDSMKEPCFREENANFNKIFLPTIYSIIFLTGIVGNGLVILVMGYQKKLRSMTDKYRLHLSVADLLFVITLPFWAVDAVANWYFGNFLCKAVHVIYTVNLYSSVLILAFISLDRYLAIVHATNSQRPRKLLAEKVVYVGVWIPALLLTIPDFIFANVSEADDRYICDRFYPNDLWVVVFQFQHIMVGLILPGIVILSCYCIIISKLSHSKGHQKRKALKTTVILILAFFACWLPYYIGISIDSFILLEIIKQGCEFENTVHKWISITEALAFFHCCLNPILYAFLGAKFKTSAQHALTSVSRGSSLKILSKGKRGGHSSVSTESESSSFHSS

Sequence: QRPVNLTMRRKLRKHNCLQRRCMPLHSRVPFP [ELA]
- activity of recombinant ELA on human chondrosarcoma cell line [1]: exerted activity only on hESCs cultures and no other differentiated cell types
- growth rescue of shELA hESCs under INSULIN deprivation (hESCs [2]): intermediate growth rescue
- angiogenesis and cardiac repair postmyocardial infarction ([3]; in vivo): promote angiogenesis and ameliorate cardiac repair postmyocardial infarction
- myocardial infarction size and damage to cardiomyocytes ([3]; injection): limit the myocardial infarction size and reduce damage to cardiomyocytes
- activity of recombinant ELA on hECs (hECs): exerted activity only on hESCs cultures and no other differentiated cell types
- antagonism of SDF1-mediated CXCR4 activation (CXCR4 [4]): preventing SDF1-mediated CXCR4 activation
- cell surface binding to CXCR4 (CXCR4 [5]): confers cell surface binding to ELA
- activated CASPASE3/7 and CASPASE 9 after ActinomycinD (hESCs [6]): entirely suppressed
- resistance or sensitivity to ActinomycinD (hESCs [6]; nanomolar concentrations of ActinomycinD): conferred significant resistance to control hESCs and completely rescued shELA hESCs
- rescue of the irradiation sensitivity of shELA hESCs (hESCs [7]): rescued this phenotype
- activated CASPASE 3 after irradiation (hESCs [7]; [12]): almost undetectable
- γH2AX foci after irradiation (hESCs [7]; [12]): comparable numbers of γH2AX foci
- activity of recombinant ELA on primary human fibroblasts [8]: exerted activity only on hESCs cultures and no other differentiated cell types
- symptoms of pulmonary arterial hypertension [9]: alleviates symptoms of pulmonary arterial hypertension
- rescue of the growth of shELA hESCs (hESCs [10]; addition of recombinant peptide to shELA hESCs): entirely rescued to normal levels
- concentration range in which the recombinant peptide is bioactive (hESCs [10]; hESCs): bioactive only in the μM range; also recorded: works in the μM range
- infarct size [11]: significantly decrease infarct size
